Patent publication US20260364072A1, “METHODS FOR PROMOTING EXPANSION OF HUMAN CD34+ CELLS IN VIVO AND FOR PROMOTING NEURAL REGENERATION” (THE REGENTS OF THE UNIVERSITY OF CALIFORNIA, priority 2023, published 2026)
pIC50: −log10 of the molar value.

Legend:
KG-1a AML cells = assay: KG-1a cell viability by flow cytometry; type: cell-based, human; details: 24 hr
From the text: (FIG. 29A) Quantification of cell viability (left panel) and splicing modulation (RFP/GFP ratios, right panel) by flow cytometry analyses of the human AML cell line (KG-1a) stably transduced with a lentiviral dual-fluorescence splicing reporter vector and treated with increasing concentrations of Rebecsinib.
For generation of stably transduced splicing reporter cell lines, a previously described splicing reporter construct^31 was cloned into a lentiviral vector backbone.^52 KG-1a cells were transduced with the dual-fluorescent lentiviral splicing reporter vector, treated with various concentrations of Rebecsinib (3-fold serial dilutions from 3 μM to 4 nM) for 24 hr, washed followed by DAPI staining, and analyzed by flow cytometry for cell viability and RFP/GFP fluorescence intensity. Results were from duplicate wells of each condition. Viability of cells treated with DMSO (0.5% final concentration) was set as 100%. Nonlinear regression curve fit analysis was carried out using Prism software (GraphPad) to determine ECso values for viability and mean fluorescence intensity (MFI) of RFP and GFP.

sAML LSC = assay: Serial transplantation assays of sAML LSC; type: in vivo, human cells in mice
Description: To test this, we performed serial transplantation assays of cells harvested from sAML50261 LSC engrafted mice that were treated intravenously twice weekly for two weeks with Rebecsinib at 10 mg/kg (serial transplant recipients received no further treatment). […] Thus, reductions in ADAR1p150-mediated RNA editing activity following Rebecsinib treatment correspond with a reversion to a healthy splice isoform expression profile^14 in engrafted human progenitors.
In humanized mouse models, sAML cells (CD34^+) from two unique […] patient samples that were splicing factor mutated or unmutated were utilized, including sAML50261 and sAML2008-5.^14 For in vivo efficacy and therapeutic index studies, sAML CD34^+ cells, or normal human cord blood-derived or aged bone marrow-derived HSPCs (CD34^+), were transplanted (50,000-200,000 cells per mouse) intrahepatically into neonatal Rag2^−/−γc^−/− mice, or intravenously into adult NSG-SGM3 mice (Jackson Laboratories, Bar Harbor, ME). A subset of experiments was performed with normal aged bone marrow cells that were transduced with the lentiviral ADAR1 nanoluc-GFP reporter vector prior to transplant. For transplantation into adult mice, animals were irradiated with ^137Cs at a dose of 150 cGy 24 hr before IV transplantation. After engraftment levels reached >1% human CD45^+ hematopoietic cells in the peripheral blood, animals were distributed among treatment groups for treatment with Rebecsinib or vehicle control essentially as previously described, with an increased dosing regimen of twice weekly (versus once weekly in prior studies)^14 and an optimized in vivo formulation (2% w/w EtOH, 5% w/v KOLLIPHOR HS™ 15 in 0.9% saline). For animals that received transplants of cells transduced with the lentiviral ADAR1 nanoluc-GFP reporter, mice were imaged 15 weeks after transplant on the IVIS 200, as previously described.^79 Following treatment with Rebecsinib (five intravenous doses total over a two-week period), hematopoietic tissues (peripheral blood, bone marrow, spleens) were collected and analyzed by flow cytometry as previously described.^14 For splice isoform-specific qRT-PCR or RNA-seq analyses on cells from in vivo studies, human CD34^+ LSC from bone marrows and spleens of engrafted mice were isolated by magnetic bead separation (Miltenyi Biotec).
Additional aliquots of CD34+ cells from bone marrow and/or spleens of treated and control animals were used for serial transplantation assays after Rebecsinib treatment, including engraftment studies and overall survival assays. In a separate cohort of animals, mice were treated with Fedratinib for two weeks (twice daily oral delivery at 60 mg/kg) as a positive control for modulation of ADAR1 expression and activity.^8

ADAR1 = ADAR1 expression by qRT-PCR in TF1a cells; type: cell-based, human; details: TF1a AML cell line; 0.1 μM, 4 hours
From the text: For lentivirus-mediated knockdown of human ADAR1 in ADAR1 activation and RNA editing biomarker studies of the nanoluc-GFP reporter and endogenous transcripts, human leukemia cells were stably transduced with the lentiviral shRNA vectors targeting ADAR1 (shADAR1) or scrambled control (shCtrl) to ablate endogenous ADAR1 expression. The shRNA plasmids targeting ADAR1 (shADAR1) as well as the scrambled control (shCtrl) were purchased from VectorBuilder (Chicago, IL) (shCtrl: […] (SEQ ID NO:3) and shADAR1: […]) (SEQ ID NO:4). […] Viral titers were assessed by qRT-PCR and transduction efficiency was tested in 293T cells. […]
For quantitative analysis of splice isoform expression, RNA editing rates, and whole gene expression by qRT-PCR, cells or tissue fragments were harvested in RNA lysis buffer and total RNA was extracted using RNeasy mini or micro extraction kits (QIAGEN, Germantown, MD) following the manufacturer's protocol including a DNase incubation step to digest any trace genomic DNA present. Levels of ADAR1 variants and LSC-specific transcripts were quantified by qRT-PCR as previously described.^14 RNA-editing site-specific qRT-PCR (RESSqPCR) was performed for variants in AZIN1 transcripts.^53 Additional species-specific primers were also designed to quantify intron retention rates in cells treated with Rebecsinib as a biomarker of response to RNA splicing modulation. […]

## CC[C@H](OC)[C@@H](C)[C@H]1O[C@@H]1[C@@H](O)[C@H](C)/C=C/C=C(\C)[C@H]1OC(=O)C[C@H](O)CC[C@@](C)(O)[C@@H](OC(C)=O)/C=C/[C@@H]1C [Rebecsinib]
KG-1a AML cells
  KG-1a AML cell survival: impaired CD34^+ KG-1a AML cell survival
KG-1a AML cells; Homo sapiens, CD34+ KG-1a AML cell survival and RFP to GFP reporter expression
  pIC50: ~7.00
sAML LSC; CD34+ cells from serial transplant recipients, RNA-seq
  ADAR-208 expression after serial transplantation compared with ADAR1p110: sustained reductions in expression
sAML LSC; sAML50261, 10 mg/kg intravenously twice weekly for two weeks (primary mice)
  frequency of hematopoietic progenitors (CD34+CD38+Lin-) in spleens of serial transplant recipients: reduced frequency of hematopoietic progenitors
sAML LSC; splicing factor mutated sAML (2008-5)
  LSC self-renewal on serial transplantation: significantly reduced LSC self-renewal
sAML LSC; splicing factor unmutated sAML 50261
  overall survival of serial transplant recipients: significant improvement in overall survival
ADAR1
  ADAR1 expression as measured by qRT-PCR: reduced ADAR1 expression
